Assay results published in publication PMC5625163, “Incompatibility of chemical protein synthesis inhibitors with accurate measurement of extended protein degradation rates” (Pharmacology Research & Perspectives, 2017).
Structures can show the parent of a compound that is named as a salt. Where two headings read alike, the source gives them in different places. Starred links: 1 amine or outer side, 2 acyl side, 3 side chain; linkers in the order of their positions; H or OH if unused. Positions of bridges follow the written chain, without caps; N, C: chain ends. Non-standard residues stand in square brackets, D forms with d. Residues, ends and D or L forms follow the SMILES beside them. Chains are numbered I, II in the order given. Actinocin(9to1) = Cc1c2oc3c(C)ccc(C(=O)[*:1])c3nc-2c(C(=O)[*:2])c(N)c1=O; NMeV = CN[C@H](C(=O)O)C(C)C; Sar = CNCC(=O)O

Experiments:
Huh‐7 cells = settings: at 10 μmol/L in Huh‐7 cells; ref Yin Low et al. (2009); cited from earlier work
[1] = Standard MTT cell viability assay in HepG2 cells; type: cell-based, human; settings: human
Description: (§1) Standard MTT assays were performed on HepG2 and PRH cells to measure cell viability. 2 × 10^4 cells per well of HepG2 were seeded into 96‐well plates in DMEM with 10% FBS and left overnight in a 37°C humidified incubator to allow cells to adhere to the plate. PRH were seeded in collagen coated 96‐well plates at a density of 2 × 10^4 cells per well. Old media was removed and replaced with 0–300 μmol/L of protein synthesis inhibitors and incubated for 72 h. A vehicle control and control with no drug was included. A quantity of 20 μL of 5 mg/mL […] in HBSS was added to each well and incubated for 2 h. A quantity of 100 μL lysis buffer (50% v/v dimethylformahyde and 20% v/v sodium dodecyl sulphate) was added to each well and the plate was incubated overnight at 37°C. The absorbance was quantified at 570 nm by a Tecan GENios micoplate reader (Germany).
(§2) Cycloheximide was incubated at 0–300 μmol/L and emetine at 0–30 μmol/L for both leucine incorporation and MTT assays.
(§3) The IC50 (concentration causing 50% protein synthesis inhibition), CC50 (concentration causing 50% cell viability), and CC10 (concentration causing 90% cell viability) were calculated by nonlinear regression of drug concentration versus leucine incorporation and MTT concentration–response graphs, respectively, using Graphpad Prism 3 software. The IC50 and CC50 values derived from the single inhibitor analyses were used for subsequent fixed‐ratio isobologram two‐drug combination analyses.

HepG2 cells [2] = assay: Standard MTT cell viability assay in HepG2 cells; type: cell-based, human; settings: 72 h
Description: as §1, §2, §3

[3] = test system: primary rat hepatocytes (PRH); assay: [3H]-leucine incorporation protein synthesis inhibition assay in primary rat hepatocytes; type: cell-based; settings: Hepatocyte, 72 h, read-out: IC50 protein synthesis inhibition
HepG2 cells [4] = assay: [3H]-leucine incorporation protein synthesis inhibition assay in HepG2 cells; type: cell-based; settings: Homo sapiens, read-out: IC50 protein synthesis inhibition
[5] = Standard MTT cell viability assay in primary rat hepatocytes; type: cell-based; settings: male, Sprague-Dawley
Description: Primary rat hepatocytes (PRH) were purchased from Invitrogen (Paisley, UK), isolated from male Sprague–Dawley rats at 9 weeks old (Lot. RS745). Cryopreserved PRH were thawed in a 37°C water bath for approximately 2 min until contents were around 90% thawed. Once thawed, the hepatocytes were added to 50 mL of prewarmed plating media (William's E media without phenol red supplemented with 5% FBS, 1 μmol/L dexamethasone, 1% solution of penicillin/streptomycin, 4 μg/mL bovine insulin, 2 mmol/L GlutaMAX™, and 15 mmol/L HEPES (CHRM® supplement A), and centrifuged for 3 min at 55g at 18°C and the supernatant fraction discarded. The hepatocytes were then resuspended in plating media at 1 × 10^6 cells per ml density.
as §1, §2, §3

HeLa cells [6] = settings: cited from earlier work
HeLa cells [7] = test system: HeLa cells; set-up: method as in Dudani et al. (1988); settings: at 0.9 mmol/L in HeLa cells; ref Dudani et al. (1988); cited from earlier work
[8] = HepG2 cells, 72 h, single inhibitor, MTT, mean ± SD, read-out: CC50 cytotoxicity (50% cell viability)
[9] = HepG2 cells, single inhibitor, MTT
[10] = PRH, 72 h, single inhibitor, MTT, mean ± SD, read-out: CC50 cytotoxicity (50% cell viability)

| Compound | cell viability (Huh‐7 cells) | CC50 at 72 h [1, 8] [nM] | CC10 (90% cell viability concentration) (HepG2 cells [2]; [9]) [nM] | IC50 [3] [nM] | IC50 (HepG2 cells [4]; HepG2, 72 h) [nM] | CC50 at 72 h [5, 10] [nM] | CC50 at 72 h [1] [nM] | CC10 (90% cell viability concentration) (HepG2 cells [2]; human) [nM] | IC50 ([3]; PRH, single inhibitor, mean ± SD) [nM] | IC50 (HepG2 cells [4]; HepG2 cells, 72 h, single inhibitor, mean ± SD) [nM] | CC50 at 72 h [5] [nM] | concentration causing cytotoxicity (HeLa cells [6]; human cell lines, including HeLa cells, ref Dudani et al. (1988)) [nM] | protein synthesis inhibition (HeLa cells [7]) [%] | concentration sufficient to cause cell toxicity (HeLa cells [6]; HeLa cells, ref Sawicki and Godman (1971)) [nM] |
| --- | --- | --- | --- | --- | --- | --- | --- | --- | --- | --- | --- | --- | --- | --- |
| CC[C@H]1CN2CCc3cc(OC)c(OC)cc3[C@@H]2C[C@@H]1C[C@H]1NCCc2cc(OC)c(OC)cc21 [emetine, emetine dihydrochloride hydrate] | over 90% | 81 ± 9 | 7.0 | 620 ± 920 | 2200 ± 1400 | 180 | – | – | – | – | – | – | – | – |
| COc1ccc(C[C@H](N)C(=O)N[C@H]2[C@@H](O)[C@H](n3cnc4c(N(C)C)ncnc43)O[C@@H]2CO)cc1 [puromycin, puromycin dihydrochloride] | – | – | – | – | – | – | 1300 ± 64 | 110 | 2000 ± 2000 | 1600 ± 1200 | 1600 ± 1000 | 900 | 79.6 | – |
| Cc1c2oc3c(C)ccc(C(=O)N[C@@H]4C(=O)N[C@H](C(C)C)C(=O)N5CCC[C@H]5C(=O)N(C)CC(=O)N(C)[C@@H](C(C)C)C(=O)O[C@@H]4C)c3nc-2c(C(=O)N[C@@H]2C(=O)N[C@H](C(C)C)C(=O)N3CCC[C@H]3C(=O)N(C)CC(=O)N(C)[C@@H](C(C)C)C(=O)O[C@@H]2C)c(N)c1=O [actinomycin D] (I: T[dV]P[Sar][NMeV] / II: T[dV]P[Sar][NMeV]; ester I:1-I:C, II:1-II:C; linker I:N-II:N via Actinocin(9to1)) | – | 6.2 ± 7.3 | 0.17 | 1.7 ± 1.8 | 39 ± 7.4 | 0.98 ± 1.8 | – | – | – | – | – | – | – | 80 |
| C[C@@H]1C[C@@H]([C@H](O)CC2CC(=O)NC(=O)C2)C(=O)[C@@H](C)C1 [cycloheximide] | – | 570 ± 510 | 24 | 290 ± 90 | 6600 ± 2500 | 680 ± 1300 | – | – | – | – | – | – | – | – |
